Data published in ChEMBL document CHEMBL1201862, “PubChem BioAssay data set” (2004).
Calls of active or inactive are those of the source.

Tests used:
[1] = test system: Vero; test: Vero cell cytotoxicity, cytotoxicity control for flavivirus capping enzyme inhibitors (AID 588742); assay type: functional; conditions: Chlorocebus sabaeus
[2] = target: T1, DNA repair protein RAD52 homolog (Homo sapiens, UniProt P43351); assay type: functional, biochemical
T1 sequence (P43351 whole entry): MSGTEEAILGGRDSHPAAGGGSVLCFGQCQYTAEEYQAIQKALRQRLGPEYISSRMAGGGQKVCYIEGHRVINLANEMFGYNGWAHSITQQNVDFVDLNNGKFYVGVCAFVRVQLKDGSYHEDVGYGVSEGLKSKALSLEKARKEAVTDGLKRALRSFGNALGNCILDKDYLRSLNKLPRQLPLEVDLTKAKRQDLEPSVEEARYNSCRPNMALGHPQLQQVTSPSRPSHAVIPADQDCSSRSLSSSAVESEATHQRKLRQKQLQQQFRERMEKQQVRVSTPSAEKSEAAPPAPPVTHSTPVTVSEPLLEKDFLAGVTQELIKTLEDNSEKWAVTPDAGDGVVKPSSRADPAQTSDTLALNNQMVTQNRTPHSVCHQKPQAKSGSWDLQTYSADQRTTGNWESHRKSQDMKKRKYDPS

[3] = target: T2, Mannose-6-phosphate isomerase (Homo sapiens, UniProt P34949); test: human PMI inhibitors, high substrate, primary screen, biochemical, fluorescence intensity, high mannose 6-phosphate (AID 1220)
T2 sequence (P34949 whole entry): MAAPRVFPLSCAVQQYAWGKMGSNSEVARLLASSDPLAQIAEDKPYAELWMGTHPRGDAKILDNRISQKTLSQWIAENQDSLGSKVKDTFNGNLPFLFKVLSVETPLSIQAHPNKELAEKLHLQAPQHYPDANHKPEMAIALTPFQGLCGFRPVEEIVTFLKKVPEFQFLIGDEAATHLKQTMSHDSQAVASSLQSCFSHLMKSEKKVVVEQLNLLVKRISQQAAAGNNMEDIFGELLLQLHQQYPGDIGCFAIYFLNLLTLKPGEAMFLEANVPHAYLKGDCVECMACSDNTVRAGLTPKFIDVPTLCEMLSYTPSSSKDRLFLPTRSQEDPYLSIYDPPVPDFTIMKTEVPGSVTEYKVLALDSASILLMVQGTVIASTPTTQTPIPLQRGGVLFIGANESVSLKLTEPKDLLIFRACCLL

[4] = target: Eukaryotic translation initiation factor 4E (Mus musculus, UniProt P63073); test: eIF4E–eIF4G protein interaction inhibitors, dose response, biochemical, TR-FRET (AID 855); assay type: functional;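 note: potency for disrupting eIF4E binding to eIF4GI seen as loss of FRET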
[5] = target: Voltage-dependent T-type calcium channel subunit alpha-1H (Homo sapiens, UniProt O95180); assay type: functional;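 note: channel activity triggered by adding a high calcium stimulation buffer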
[6] = target: T3, Long-chain-fatty-acid--AMP ligase FadD28 (Mycobacterium tuberculosis, UniProt P9WQ59); test: Fluorescence polarization aasay to screen for inhibitors that compete for the binding of FadD28 to a bisubstrate Measured in Biochemical System Using Plate Reader - 2147-01_Inhibitor_Dose_CherryPick_Activity.; assay type: functional, Mycobacterium tuberculosis H37Rv
T3 sequence (P9WQ59 whole entry): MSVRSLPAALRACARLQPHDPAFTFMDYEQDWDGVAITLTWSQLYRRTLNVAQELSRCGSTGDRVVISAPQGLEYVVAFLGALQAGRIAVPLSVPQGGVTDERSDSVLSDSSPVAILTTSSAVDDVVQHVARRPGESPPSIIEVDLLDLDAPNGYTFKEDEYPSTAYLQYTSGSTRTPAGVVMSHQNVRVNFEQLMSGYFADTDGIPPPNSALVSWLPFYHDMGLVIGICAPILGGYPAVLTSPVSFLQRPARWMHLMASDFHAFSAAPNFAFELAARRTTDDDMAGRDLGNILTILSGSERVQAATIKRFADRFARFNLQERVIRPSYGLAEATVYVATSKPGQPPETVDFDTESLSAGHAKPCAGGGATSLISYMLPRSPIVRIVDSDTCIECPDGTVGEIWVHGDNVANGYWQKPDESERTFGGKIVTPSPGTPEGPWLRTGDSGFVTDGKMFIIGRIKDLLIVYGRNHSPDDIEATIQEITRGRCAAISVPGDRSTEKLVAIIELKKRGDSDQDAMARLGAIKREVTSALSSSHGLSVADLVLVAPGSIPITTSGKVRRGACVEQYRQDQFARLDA

[7] = target: T4, Short transient receptor potential channel 4 (Mus musculus, UniProt Q9QUQ5); test: mouse TRPC4 channel activators, dose response, cell-based, HEK293 TRPC4/mu-opioid, Fluo-4 calcium (AID 434937); assay type: functional
T4 sequence (Q9QUQ5 whole entry): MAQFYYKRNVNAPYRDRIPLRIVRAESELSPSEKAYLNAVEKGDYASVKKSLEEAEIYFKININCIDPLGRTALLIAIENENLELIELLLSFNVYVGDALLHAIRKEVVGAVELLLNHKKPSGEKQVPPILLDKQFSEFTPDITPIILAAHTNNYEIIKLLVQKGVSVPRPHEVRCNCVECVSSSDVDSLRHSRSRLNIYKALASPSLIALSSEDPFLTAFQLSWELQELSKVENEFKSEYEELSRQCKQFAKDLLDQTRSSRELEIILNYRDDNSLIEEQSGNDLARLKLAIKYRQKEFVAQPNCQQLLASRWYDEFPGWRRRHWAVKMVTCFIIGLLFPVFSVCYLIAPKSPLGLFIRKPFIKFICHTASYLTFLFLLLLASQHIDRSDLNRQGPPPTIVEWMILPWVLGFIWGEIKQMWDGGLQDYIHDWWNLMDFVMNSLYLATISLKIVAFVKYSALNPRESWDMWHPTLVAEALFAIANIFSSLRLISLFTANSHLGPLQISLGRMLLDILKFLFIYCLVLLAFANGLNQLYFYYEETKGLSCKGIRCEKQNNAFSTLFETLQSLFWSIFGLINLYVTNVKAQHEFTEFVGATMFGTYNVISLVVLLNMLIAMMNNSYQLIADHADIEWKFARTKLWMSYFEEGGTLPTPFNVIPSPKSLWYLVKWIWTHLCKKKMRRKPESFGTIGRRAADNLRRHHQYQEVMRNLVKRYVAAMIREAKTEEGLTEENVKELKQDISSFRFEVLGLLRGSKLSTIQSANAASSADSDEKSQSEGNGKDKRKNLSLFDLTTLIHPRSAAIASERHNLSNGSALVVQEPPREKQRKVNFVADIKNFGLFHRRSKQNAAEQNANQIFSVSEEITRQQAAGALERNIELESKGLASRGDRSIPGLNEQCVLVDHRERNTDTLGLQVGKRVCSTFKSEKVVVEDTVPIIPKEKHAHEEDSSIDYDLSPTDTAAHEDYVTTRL

[8] = target: Estrogen receptor beta (Homo sapiens, UniProt Q92731);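 note: recombinant ER-beta bound to coactivator SRC1 peptide in presence of estradiol agonist; inhibitors block coactivator peptide binding and lower the FRET signal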
[9] = target: SUMO-activating enzyme (Homo sapiens, UniProt Q9UBT2); test: SUMOylation inhibitor hit validation, confirmation, SUMOylation inhibitor project, biochemical, AlphaScreen (AID 2018); assay type: functional
[10] = test system: Vero; test: cells; assay type: functional; conditions: Chlorocebus sabaeus
[11] = HEp-2 cell cytotoxicity, dose response, cytotoxicity control for RSV inhibitor project, HTS (AID 2410); assay type: functional; conditions: human respiratory syncytial virus
[12] = test system: Vero; test: cells; assay type: functional, cell-based; conditions: Chlorocebus sabaeus
[13] = target: T5, Histone-lysine N-methyltransferase NSD2 (Homo sapiens, UniProt O96028); assay type: biochemical
T5 sequence (O96028 whole entry): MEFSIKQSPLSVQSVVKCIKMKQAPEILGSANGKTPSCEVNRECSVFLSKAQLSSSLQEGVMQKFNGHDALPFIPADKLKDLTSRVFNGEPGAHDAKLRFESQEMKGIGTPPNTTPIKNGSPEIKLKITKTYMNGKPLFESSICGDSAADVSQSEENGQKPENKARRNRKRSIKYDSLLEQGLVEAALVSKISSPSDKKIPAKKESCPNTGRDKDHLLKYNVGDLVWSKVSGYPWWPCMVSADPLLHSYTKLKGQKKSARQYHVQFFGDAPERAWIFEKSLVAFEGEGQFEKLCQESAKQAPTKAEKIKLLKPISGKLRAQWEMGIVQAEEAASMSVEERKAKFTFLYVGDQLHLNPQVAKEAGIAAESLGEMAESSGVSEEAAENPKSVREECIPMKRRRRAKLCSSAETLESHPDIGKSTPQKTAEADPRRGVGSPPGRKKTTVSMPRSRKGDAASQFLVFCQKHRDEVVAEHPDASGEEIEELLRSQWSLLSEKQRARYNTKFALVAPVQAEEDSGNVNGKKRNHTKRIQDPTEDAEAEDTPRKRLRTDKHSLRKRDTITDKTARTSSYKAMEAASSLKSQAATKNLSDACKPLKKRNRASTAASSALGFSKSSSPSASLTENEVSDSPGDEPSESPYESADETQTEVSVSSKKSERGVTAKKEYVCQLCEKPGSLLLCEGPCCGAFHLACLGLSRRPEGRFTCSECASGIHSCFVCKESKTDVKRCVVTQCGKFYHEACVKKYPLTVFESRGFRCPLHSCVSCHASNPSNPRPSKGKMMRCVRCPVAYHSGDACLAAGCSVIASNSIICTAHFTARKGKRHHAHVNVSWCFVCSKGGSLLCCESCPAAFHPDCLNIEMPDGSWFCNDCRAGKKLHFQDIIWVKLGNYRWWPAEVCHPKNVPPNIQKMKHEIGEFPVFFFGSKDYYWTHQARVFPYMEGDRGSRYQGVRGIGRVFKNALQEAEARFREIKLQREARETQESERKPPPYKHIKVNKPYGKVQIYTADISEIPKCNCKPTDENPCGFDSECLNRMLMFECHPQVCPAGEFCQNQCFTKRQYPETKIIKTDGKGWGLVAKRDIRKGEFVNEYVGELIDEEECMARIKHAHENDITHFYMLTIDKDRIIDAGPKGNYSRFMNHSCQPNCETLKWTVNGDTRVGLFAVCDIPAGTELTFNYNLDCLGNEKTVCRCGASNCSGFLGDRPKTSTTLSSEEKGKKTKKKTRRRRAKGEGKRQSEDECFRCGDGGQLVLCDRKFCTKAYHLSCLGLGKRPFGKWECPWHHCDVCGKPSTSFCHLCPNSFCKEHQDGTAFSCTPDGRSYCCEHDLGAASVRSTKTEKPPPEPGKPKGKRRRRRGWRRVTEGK

[14] = test system: P388; test: cells; assay type: functional; conditions: Mus musculus
[15] = test system: SN12K1; test: cells; assay type: functional; conditions: Homo sapiens
[16] = test system: P388/ADR; test: cells; assay type: functional; conditions: Mus musculus

Sequence of Eukaryotic translation initiation factor 4E (P63073 whole entry): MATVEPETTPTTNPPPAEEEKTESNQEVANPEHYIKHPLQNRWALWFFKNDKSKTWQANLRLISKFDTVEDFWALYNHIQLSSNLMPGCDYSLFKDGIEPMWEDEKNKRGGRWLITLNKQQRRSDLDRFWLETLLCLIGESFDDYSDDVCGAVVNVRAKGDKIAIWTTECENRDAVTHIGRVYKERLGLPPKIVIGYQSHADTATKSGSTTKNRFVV
Sequence of Estrogen receptor beta (Q92731 whole entry): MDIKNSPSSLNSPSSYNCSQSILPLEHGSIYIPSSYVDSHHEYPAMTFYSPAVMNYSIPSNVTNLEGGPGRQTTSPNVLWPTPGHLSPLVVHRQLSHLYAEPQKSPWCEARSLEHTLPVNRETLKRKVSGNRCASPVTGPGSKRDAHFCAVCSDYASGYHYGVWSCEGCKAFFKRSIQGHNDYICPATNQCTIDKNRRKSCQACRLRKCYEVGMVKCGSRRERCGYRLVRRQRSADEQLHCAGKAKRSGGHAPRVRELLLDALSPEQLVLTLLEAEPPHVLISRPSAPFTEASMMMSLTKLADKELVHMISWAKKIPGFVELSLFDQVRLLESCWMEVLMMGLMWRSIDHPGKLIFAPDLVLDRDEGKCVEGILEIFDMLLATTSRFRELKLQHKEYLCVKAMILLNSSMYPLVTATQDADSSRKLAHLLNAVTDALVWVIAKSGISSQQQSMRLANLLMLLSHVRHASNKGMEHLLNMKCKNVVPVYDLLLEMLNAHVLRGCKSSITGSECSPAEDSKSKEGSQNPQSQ
Sequence of SUMO-activating enzyme (Q9UBE0 whole entry): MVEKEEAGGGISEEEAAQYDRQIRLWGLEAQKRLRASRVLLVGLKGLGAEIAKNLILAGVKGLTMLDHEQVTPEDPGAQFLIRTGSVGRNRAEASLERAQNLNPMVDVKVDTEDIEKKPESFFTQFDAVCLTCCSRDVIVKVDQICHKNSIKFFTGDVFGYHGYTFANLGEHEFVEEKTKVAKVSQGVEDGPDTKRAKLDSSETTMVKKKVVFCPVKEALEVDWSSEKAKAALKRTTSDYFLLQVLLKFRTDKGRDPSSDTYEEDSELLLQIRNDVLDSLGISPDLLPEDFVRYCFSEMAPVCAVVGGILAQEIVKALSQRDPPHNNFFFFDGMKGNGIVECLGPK
Sequence of SUMO-activating enzyme (Q9UBT2 whole entry): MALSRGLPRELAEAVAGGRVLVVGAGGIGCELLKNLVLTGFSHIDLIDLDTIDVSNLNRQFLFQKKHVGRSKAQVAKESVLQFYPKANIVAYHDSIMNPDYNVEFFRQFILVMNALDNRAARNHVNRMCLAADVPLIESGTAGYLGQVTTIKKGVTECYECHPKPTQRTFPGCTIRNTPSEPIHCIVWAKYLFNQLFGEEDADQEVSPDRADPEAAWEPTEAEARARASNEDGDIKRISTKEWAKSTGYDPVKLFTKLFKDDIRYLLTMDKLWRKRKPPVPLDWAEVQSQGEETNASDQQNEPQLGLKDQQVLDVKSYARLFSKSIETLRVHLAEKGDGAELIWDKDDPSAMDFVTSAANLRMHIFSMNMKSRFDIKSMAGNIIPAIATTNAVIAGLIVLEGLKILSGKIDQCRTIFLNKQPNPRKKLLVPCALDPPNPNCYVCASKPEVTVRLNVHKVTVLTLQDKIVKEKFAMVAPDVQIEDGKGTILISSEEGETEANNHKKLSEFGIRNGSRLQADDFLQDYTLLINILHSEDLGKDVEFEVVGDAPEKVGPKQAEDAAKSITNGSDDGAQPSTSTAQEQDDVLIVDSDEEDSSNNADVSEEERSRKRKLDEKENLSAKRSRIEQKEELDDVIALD
Sequence of Voltage-dependent T-type calcium channel subunit alpha-1H (O95180 whole entry): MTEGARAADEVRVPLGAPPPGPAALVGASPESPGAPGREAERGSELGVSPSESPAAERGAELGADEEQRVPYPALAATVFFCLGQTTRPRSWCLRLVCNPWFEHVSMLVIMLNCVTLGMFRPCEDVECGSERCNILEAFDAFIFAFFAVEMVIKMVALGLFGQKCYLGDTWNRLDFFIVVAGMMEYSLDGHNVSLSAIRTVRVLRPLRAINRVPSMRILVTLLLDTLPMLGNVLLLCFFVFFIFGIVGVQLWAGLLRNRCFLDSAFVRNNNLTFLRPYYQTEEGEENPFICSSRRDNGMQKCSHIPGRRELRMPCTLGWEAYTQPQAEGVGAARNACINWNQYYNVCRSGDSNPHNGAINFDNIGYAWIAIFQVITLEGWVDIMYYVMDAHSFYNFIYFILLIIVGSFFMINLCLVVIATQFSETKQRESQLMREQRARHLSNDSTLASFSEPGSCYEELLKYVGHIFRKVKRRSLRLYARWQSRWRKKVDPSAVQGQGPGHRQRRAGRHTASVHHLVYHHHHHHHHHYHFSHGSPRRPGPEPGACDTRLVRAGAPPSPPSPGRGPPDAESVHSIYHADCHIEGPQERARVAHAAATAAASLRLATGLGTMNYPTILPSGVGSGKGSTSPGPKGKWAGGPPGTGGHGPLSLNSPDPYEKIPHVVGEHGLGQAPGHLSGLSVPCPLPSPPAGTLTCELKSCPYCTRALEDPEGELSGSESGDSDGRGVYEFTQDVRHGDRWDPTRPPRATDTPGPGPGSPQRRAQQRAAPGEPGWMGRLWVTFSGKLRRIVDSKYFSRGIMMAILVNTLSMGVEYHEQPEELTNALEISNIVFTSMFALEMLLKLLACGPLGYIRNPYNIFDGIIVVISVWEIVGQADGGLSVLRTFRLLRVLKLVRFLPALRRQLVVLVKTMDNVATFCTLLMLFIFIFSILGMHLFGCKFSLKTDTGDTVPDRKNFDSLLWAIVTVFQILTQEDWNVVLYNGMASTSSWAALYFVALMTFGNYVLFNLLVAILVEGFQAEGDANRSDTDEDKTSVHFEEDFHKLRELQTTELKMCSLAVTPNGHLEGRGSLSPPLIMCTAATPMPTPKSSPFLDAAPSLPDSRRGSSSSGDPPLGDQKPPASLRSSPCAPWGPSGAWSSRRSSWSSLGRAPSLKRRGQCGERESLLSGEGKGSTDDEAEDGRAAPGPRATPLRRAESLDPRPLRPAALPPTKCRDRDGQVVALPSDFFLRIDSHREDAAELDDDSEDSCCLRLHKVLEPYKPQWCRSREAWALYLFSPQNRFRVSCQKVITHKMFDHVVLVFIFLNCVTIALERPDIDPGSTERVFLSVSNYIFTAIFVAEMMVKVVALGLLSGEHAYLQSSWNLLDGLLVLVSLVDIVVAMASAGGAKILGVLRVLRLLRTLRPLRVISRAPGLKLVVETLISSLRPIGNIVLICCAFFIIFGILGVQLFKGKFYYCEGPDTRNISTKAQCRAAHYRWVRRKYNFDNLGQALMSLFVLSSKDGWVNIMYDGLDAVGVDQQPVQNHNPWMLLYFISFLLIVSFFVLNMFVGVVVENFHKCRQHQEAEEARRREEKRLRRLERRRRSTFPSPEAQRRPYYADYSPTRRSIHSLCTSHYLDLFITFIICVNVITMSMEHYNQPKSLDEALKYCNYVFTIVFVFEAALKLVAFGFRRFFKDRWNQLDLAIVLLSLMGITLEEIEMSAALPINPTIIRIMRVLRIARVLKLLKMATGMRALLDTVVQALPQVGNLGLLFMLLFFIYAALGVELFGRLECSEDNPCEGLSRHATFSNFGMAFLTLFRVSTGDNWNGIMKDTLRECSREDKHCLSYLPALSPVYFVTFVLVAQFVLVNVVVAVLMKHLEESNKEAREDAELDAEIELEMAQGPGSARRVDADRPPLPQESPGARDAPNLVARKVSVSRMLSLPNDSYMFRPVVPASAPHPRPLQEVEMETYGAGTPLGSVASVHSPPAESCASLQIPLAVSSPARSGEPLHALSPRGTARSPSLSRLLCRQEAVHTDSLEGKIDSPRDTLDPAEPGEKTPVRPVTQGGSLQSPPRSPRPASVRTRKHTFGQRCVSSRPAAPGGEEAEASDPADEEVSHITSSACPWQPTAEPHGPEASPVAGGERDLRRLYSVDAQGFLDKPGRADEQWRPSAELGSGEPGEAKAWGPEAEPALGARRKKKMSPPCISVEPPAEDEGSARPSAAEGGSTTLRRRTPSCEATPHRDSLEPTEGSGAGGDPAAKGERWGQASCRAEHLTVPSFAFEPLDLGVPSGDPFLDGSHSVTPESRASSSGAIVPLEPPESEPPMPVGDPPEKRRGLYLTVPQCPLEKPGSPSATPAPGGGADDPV

O=C(Nc1ccc2c(c1)CCCN2C(=O)c1cccs1)c1ccccc1
CC50 [1]: > 40 µM (active)

CCCCN=C(S)Nc1ccc2nc(N3CCN(CC)CC3)cc(C)c2c1
AC50 [2]: 25.9 µM (active)

COC(=O)C1=C(C(=O)OC)SC(=C2C(=S)C(C)(C)N(C(=O)C3CC3)c3ccccc32)S1
IC50 [3]: 6.47 µM (active)

O=S(=O)(NCCc1ccc(F)cc1)c1cccc2cccnc12
IC50 [4]: 50 µM (inactive)

O=C(CS(=O)(=O)Cc1ccccc1)Nc1ccc(S(=O)(=O)N2CCCCCC2)cc1
EC50 [5]: 4.62 µM (active) | AC50 [6]: 80.8 µM (active)

COc1ccc(C(c2sc3nc(C)nn3c2O)N2CCc3ccccc3C2)cc1 (stereo unspecified)
IC50 [3]: 9.88 µM (active)

Cc1cc(-c2nn(-c3ccccc3F)cc2CNCCc2c[nH]cn2)c(C)s1
EC50 [7]: 0.0427 µM (active)

O=C(NCc1ccco1)C1(S(=O)(=O)c2ccc(Cl)cc2)CC1
IC50 [8]: > 50 µM (not active)

CC1CCCN(c2nc3ccccc3nc2C(C#N)S(=O)(=O)c2ccccc2)C1 (stereo unspecified)
IC50 [9]: 22.1 µM (active)

Cc1ccc2cc(C#N)c(NCCNC(S)=NCCCN(C)C)nc2c1C
AC50 [2]: 16.9 µM (active) | CC50 [10]: 15.1 µM (active) | CC50 [11]: 13.2 µM (active) | IC50 [12]: > 25 µM (active)

CCN(CC)CCN=C(S)Nc1ccc2nc(N3CCCC3)cc(C)c2c1
AC50 [2]: 3.9 µM (active) | AC50 [13]: > 20 µM (inactive)

CCOC(=O)CCC(NC(=O)c1ccc(NCN2C(=O)CCC2=O)cc1)C(=O)OCC (stereo unspecified)
IC50 [8]: > 50 µM (not active)

N=C1/C(=C/c2cccn2Cc2ccc(Cl)cc2)C(=O)N=C2SC=CN12
IC50 [9]: 47.6 µM (active)

O=C(c1cccn2c(=O)c3cc(Cl)ccc3nc12)N1CCN(Cc2ccc3c(c2)OCO3)CC1
IC50 [4]: > 64 µM (inactive)

Cc1ccc(C(=O)Nc2nc(-c3cccnc3)cs2)o1
IC50 [8]: 21.2 µM (active)

O=C(O)C1C2C=CC(C2)C1C(=O)NC1CCN(Cc2ccccc2)CC1 (stereo unspecified)
EC50 [7]: 5.31 µM (active)

CCN1CCCC1CNC(=O)c1cc2c(OC)cccc2[nH]1 (stereo unspecified)
EC50 [7]: 6.68 µM (active)

O=C(OCC1CC(c2ccccn2)=NO1)c1ccc(Br)cc1 (stereo unspecified)
IC50 [4]: > 64 µM (inactive)

O=C(N[C@@H](c1ccccc1)[C@@H](O)C(=O)OCc1ccc2c(c1)OCO2)c1ccccc1
GI50 [14]: 64.7 µM (inactive) | GI50 [15]: > 100 µM (inactive) | GI50 [16]: 72.6 µM (inactive)

CC1C(=O)CC(c2cccs2)N(N=O)C1c1cccs1 (stereo unspecified)
GI50 [14]: 20.4 µM (inactive) | GI50 [15]: 57.8 µM (inactive) | GI50 [16]: 17.3 µM (inactive)

O=c1oc2c(ccc3occc32)c(N2CCCCC2)c1-c1ccccc1
GI50 [14]: 34.7 µM (inactive) | GI50 [15]: > 100 µM (inactive) | GI50 [16]: 48.6 µM (inactive)

CCOC(=O)/C=C/c1c[nH]c(=O)[nH]c1=O
GI50 [14]: > 75 µM (inactive) | GI50 [15]: > 75 µM (inactive) | GI50 [16]: > 66.4 µM (inactive)

CC(=O)C(=Cc1cn(C)c(=O)n(C)c1=O)C(C)=O
GI50 [14]: 80.7 µM (inactive) | GI50 [15]: 100 µM (inactive) | GI50 [16]: 96.6 µM (inactive)

CCCCCCc1cn([C@H]2C[C@H](O)[C@@H](CO)O2)c(=O)[nH]c1=O
GI50 [14]: > 100 µM (inactive) | GI50 [15]: > 100 µM (inactive) | GI50 [16]: > 100 µM (inactive)
